Our source for the IC50 values is patent US10414763B2 (CANCER RESEARCH TECHNOLOGY LIMITED, priority 2014, dated 2019).

As a reminder, the IC50 is the concentration needed to halve the response being measured.

The target in the test is T1, full-length human PKCι (Homo sapiens, UniProt P41743).
T1 construct: Recombinant, full-length human PKCι expressed in Sf21 insect cells is also commercially available; purchased EMD Millipore; host or cells: Sf21 insect cells (baculovirus)
T1 sequence (P41743 1-596): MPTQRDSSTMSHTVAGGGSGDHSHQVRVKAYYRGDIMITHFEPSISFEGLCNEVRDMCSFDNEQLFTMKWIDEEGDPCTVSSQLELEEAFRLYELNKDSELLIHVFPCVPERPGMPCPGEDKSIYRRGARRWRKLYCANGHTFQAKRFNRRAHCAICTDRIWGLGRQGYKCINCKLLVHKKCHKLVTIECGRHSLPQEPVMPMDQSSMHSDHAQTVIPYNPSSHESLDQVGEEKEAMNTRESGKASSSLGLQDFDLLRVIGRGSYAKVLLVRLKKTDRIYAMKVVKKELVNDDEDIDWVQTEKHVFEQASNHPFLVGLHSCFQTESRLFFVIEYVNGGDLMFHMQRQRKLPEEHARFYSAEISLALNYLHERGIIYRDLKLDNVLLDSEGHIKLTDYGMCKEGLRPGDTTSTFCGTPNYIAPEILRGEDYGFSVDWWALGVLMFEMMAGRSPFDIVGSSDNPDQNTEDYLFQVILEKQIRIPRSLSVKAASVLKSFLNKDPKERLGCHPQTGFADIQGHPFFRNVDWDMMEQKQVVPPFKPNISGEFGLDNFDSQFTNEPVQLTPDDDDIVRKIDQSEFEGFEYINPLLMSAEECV
In words: PKCι IC50 IMAP fluorescence polarisation assay, full-length enzyme, 150 μM ATP. To be noted: read-out: IC50 in IMAP assay against full length PKCi at 150 μM ATP. It counts as biochemical. In a few lines: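 IMAP fluorescence polarisation kinase assay: 15 pM baculovirus-expressed human PKCiota with 100 nM FAM-pseudosubstrate peptide and 150 μM ATP, 1 h at 25 °C. IMAP detection reagent then 2 h at 25 °C before FP measurement. Inhibition referenced to no-compound and no-enzyme controls for IC50 fitting.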
(In general: Fluorescence polarisation rises when a labelled molecule tumbles more slowly, as on binding a larger partner.)
In the case of `Cc1ccc(-c2cc3c(-c4nc(N5CCNCC5)c5c(C6CC6)cncc5n4)ccnc3[nH]2)o1` [Example 42, 5-Cyclopropyl-2-[2-(5-methyl-furan-2-yl)-1H-pyrrolo[2,3-b]pyridin-4-yl]-4-piperazin-1-yl-pyrido[3,4-d]pyrimidine], the IC50 was less than 100 nM.

Turning to `Clc1ccc(Cl)c(-c2cc3c(-c4nc(N5CCNCC5)c5c(C6CC6)cncc5n4)ccnc3[nH]2)c1` [Example 46, 5-Cyclopropyl-2-[2-(2,5-dichloro-phenyl)-1H-pyrrolo[2,3-b]pyridin-4-yl]-4-piperazin-1-yl-pyrido[3,4-d]pyrimidine], the IC50 was less than 100 nM.

For `CN(C)CC#Cc1cc2c(-c3nc(N4CCNCC4)c4c(C5CCC5)cncc4n3)ccnc2[nH]1` [Example 55, {3-[4-(5-Cyclobutyl-4-piperazin-1-yl-pyrido[3,4-d]pyrimidin-2-yl)-1H-pyrrolo[2,3-b]pyridin-2-yl]-prop-2-ynyl}-dimethyl-amine], the IC50 was less than 100 nM.

`c1ccc2c(c1)[nH]c1nccc(-c3nc(N[C@H]4[C@@H]5CNC[C@@H]54)c4c(C5CCC5)cncc4n3)c12` [Example 33, (2R,6S)-3-Aza-bicyclo[3.1.0]hex-6-yl-[(S)-5-cyclobutyl-2-(9H-pyrido[2,3-b]indol-4-yl)-pyrido[3,4-d]pyrimidin-4-yl]-amine]: the IC50 is less than 100 nM.

For the compound `CC(C)(C)c1csc(Nc2cc(-c3nc(NC4CCNCC4(C)C)c4c(C5CCC5)cncc4n3)ccn2)n1` (centres unmarked) [Example 72, {2-[2-(4-tert-Butyl-thiazol-2-ylamino)-pyridin-4-yl]-5-cyclobutyl-pyrido[3,4-d]pyrimidin-4-yl}-(3,3-dimethyl-piperidin-4-yl)-amine], the IC50 lay within 100 to 1000 nM.

As for `NC[C@H]1CCN(c2nc(-c3ccnc4[nH]c5ccccc5c34)nc3cncc(C4CCC4)c23)C1` [Example 249, C-{(R)-1-[5-Cyclobutyl-2-(9H-pyrido[2,3-b]indol-4-yl)-pyrido[3,4-d]pyrimidin-4-yl]-pyrrolidin-3-yl}-methylamine], the IC50 was less than 100 nM.

For `CN(c1nc(-c2ccnc3[nH]c(-c4cc(Cl)ccc4Cl)cc23)nc2cncc(C3CC3)c12)C1CCNCC1(C)C` (centres unmarked) [Example 45, {5-Cyclopropyl-2-[2-(2,5-dichloro-phenyl)-1H-pyrrolo[2,3-b]pyridin-4-yl]-pyrido[3,4-d]pyrimidin-4-yl}-(3,3-dimethyl-piperidin-4-yl)-methyl-amine], the IC50 was less than 100 nM.

For the compound `C[C@H]1CNCC[C@H]1Nc1nc(-c2ccnc3[nH]c4ccccc4c23)nc2cncc(C(F)(F)F)c12` (racemic) [Example 351, rac-(3S,4R)-3-Methyl-piperidin-4-yl)-[2-(9H-pyrido[2,3-b]indol-4-yl)-5-trifluoromethyl-pyrido[3,4-d]pyrimidin-4-yl]-amine], the IC50 was 100 to 1000 nM.

Consider `C[C@H]1C[C@@H](Nc2nc(-c3ccnc(Nc4nc(F)ccc4F)c3)nc3cncc(C4CC4)c23)CCN1` (racemic) [Example 225, (±)-{5-Cyclopropyl-2-[2-(3,6-difluoro-pyridin-2-ylamino)-pyridin-4-yl]-pyrido[3,4-d]pyrimidin-4-yl}-((2,4-cis)-2-methyl-piperidin-4-yl)-amine], for which the IC50 was less than 100 nM.

With `CN(c1nc(-c2ccnc3[nH]c4ccccc4c23)nc2cncc(C3CCC3)c12)C1CC2NC(=O)OC2C1` (centres unmarked) [Example 375, 5-{[5-Cyclobutyl-2-(9H-pyrido[2,3-b]indol-4-yl)-pyrido[3,4-d]pyrimidin-4-yl]-methyl-amino}-hexahydro-cyclopentoxazol-2-one], the IC50 was 100 to 1000 nM.

On to `CC1(C)CNCC[C@@H]1Nc1nc(-c2ccnc(Nc3ncc(F)cc3F)c2)nc2cncc(C3CC3)c12` [Example 391, {5-Cyclopropyl-2-[2-(3,5-difluoro-pyridin-2-ylamino)-pyridin-4-yl]-pyrido[3,4-d]pyrimidin-4-yl}-((S)-3,3-dimethyl-piperidin-4-yl)-amine], for which the IC50 is less than 100 nM.

In the case of `CC1(C)CNCCC1Nc1nc(-c2ccnc(Nc3nc(C4CC4)cs3)c2)nc2cncc(C3CC3)c12` (centres unmarked) [Example 39, {5-Cyclopropyl-2-[2-(4-cyclopropyl-thiazol-2-ylamino)-pyridin-4-yl]-pyrido[3,4-d]pyrimidin-4-yl}-(3,3-dimethyl-piperidin-4-yl)-amine], the IC50 was 100 to 1000 nM.

Regarding `FC(F)(F)c1cc2c(-c3nc(N4CC[C@H]5NCCC[C@H]54)c4c(C5CC5)cncc4n3)ccnc2[nH]1` (racemic) [Example 63, (±)-5-Cyclopropyl-4-(3,7-cis)-octahydro-pyrrolo[3,2-b]pyridin-1-yl-2-(2-trifluoromethyl-1H-pyrrolo[2,3-b]pyridin-4-yl)-pyrido[3,4-d]pyrimidine], the IC50 was less than 100 nM.

`CC1(C)CNCC[C@@H]1Nc1nc(-c2cccc(Nc3nc(F)ccc3F)c2)nc2cncc(C3CCC3)c12` [Example 315, {5-Cyclobutyl-2-[3-(3,6-difluoro-pyridin-2-ylamino)-phenyl]-pyrido[3,4-d]pyrimidin-4-yl}-((S)-3,3-dimethyl-piperidin-4-yl)-amine]: the IC50 fell in the range of 100 to 1000 nM.

Consider `CC1(C)CNCCC1Nc1nc(-c2ccnc(Nc3ccc(OC(F)(F)F)cc3)c2)nc2cncc(C3CCC3)c12` (centres unmarked) [Example 90, {5-Cyclobutyl-2-[2-(4-trifluoromethoxy-phenylamino)-pyridin-4-yl]-pyrido[3,4-d]pyrimidin-4-yl}-(3,3-dimethyl-piperidin-4-yl)-amine], for which the IC50 lay in the range of 100 to 1000 nM.

For the compound `CC1(C)CNCCC1Nc1nc(-c2ccnc(Nc3cc4ccccn4n3)c2)nc2cncc(C3CCC3)c12` (centres unmarked) [Example 136, {5-Cyclobutyl-2-[2-(pyrazolo[1,5-a]pyridin-2-ylamino)-pyridin-4-yl]-pyrido[3,4-d]pyrimidin-4-yl}-(3,3-dimethyl-piperidin-4-yl)-amine], the IC50 was less than 100 nM.

Consider `Cc1cc2c(-c3nc(N4CC[C@H]5NCCC[C@H]54)c4c(C5CC5)cncc4n3)ccnc2[nH]1` (racemic) [Example 83, (±)-5-Cyclopropyl-2-(2-methyl-1H-pyrrolo[2,3-b]pyridin-4-yl)-4-(3,7-cis)-octahydro-pyrrolo [3,2-b]pyridin-1-yl-pyrido[3,4-d]pyrimidine], for which the concentration for half-maximal inhibition (IC50) was less than 100 nM.

Take `CC1(C)CNCCC1Nc1nc(-c2ccnc(Nc3ncn(-c4ccccc4)n3)c2)nc2cncc(C3CC3)c12` (racemic) [Example 233, rac-{5-Cyclopropyl-2-[2-(1-phenyl-1H-1,2,4-triazol-3-ylamino)-pyridin-4-yl]-pyrido[3,4-d]pyrimidin-4-yl}-(3,3-dimethyl-piperidin-4-yl)-amine]: the IC50 is less than 100 nM.

For the compound `O[C@@H]1CNCC[C@H]1Nc1nc(-c2ccnc(Nc3ncc(F)cc3F)c2)nc2cncc(C3CCC3)c12` (racemic) [Example 287, rac-(3R,4R)-4-{5-Cyclobutyl-2-[2-(3,5-difluoro-pyridin-2-ylamino)-pyridin-4-yl]-pyrido[3,4-d]pyrimidin-4-ylamino}-piperidin-3-ol], the IC50 is less than 100 nM.

For `CC1(C)CNCC[C@@H]1Nc1nc(-c2ccnc(Nc3nc4ccccn4n3)c2)nc2cncc(C3CC3)c12` [Example 241, [5-Cyclopropyl-2-[2-([1,2,4]triazolo[1,5-a]pyridin-2-ylamino)-pyridin-4-yl]-pyrido[3,4-d]pyrimidin-4-yl}-((S)-3,3-dimethyl-piperidin-4-yl)-amine], the IC50 was less than 100 nM.
